Test results from paper PMC12039745, “Structure and inhibition of diaminopimelic acid epimerase by slow‐binding α‐methyl amino acids” (Protein Science : A Publication of the Protein Society, 2025).

T1: DAP epimerase (DapF) (Arabidopsis thaliana, UniProt Q9LFG2)
T1 sequence (Q9LFG2 52-362): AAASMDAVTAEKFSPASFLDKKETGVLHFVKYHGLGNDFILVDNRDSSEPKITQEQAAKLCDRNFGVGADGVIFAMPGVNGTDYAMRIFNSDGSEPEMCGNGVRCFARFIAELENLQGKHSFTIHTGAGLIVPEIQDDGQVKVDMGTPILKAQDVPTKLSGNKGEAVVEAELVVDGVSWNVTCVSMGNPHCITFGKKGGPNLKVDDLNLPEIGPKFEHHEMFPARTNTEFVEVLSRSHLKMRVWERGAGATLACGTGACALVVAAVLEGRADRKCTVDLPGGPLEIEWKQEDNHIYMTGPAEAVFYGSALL

B1: DAP epimerase (DapF) (Arabidopsis thaliana) (protein)
chain: T1 sequence (Q9LFG2 52-362)

How the values were obtained:
DAP epimerase (DapF) [1] = target: T2, DAP epimerase (DapF); experiment: X-ray crystal structure ([…] Å); DAP dehydrogenase-coupled inhibition assay after […] h incubation; assay type: biochemical, Anabaena sp. YBS01
T2 construct: C-terminal hexahistidine tag

DAP epimerase (DapF) [2] = target: T1, DAP epimerase (DapF); experiment: DAP dehydrogenase-coupled assay at […] inhibitor, time-dependent pre-incubation; assay type: biochemical
DAP epimerase (DapF) [3] = target: T2, DAP epimerase (DapF); experiment: DAP dehydrogenase-coupled assay, […] h pre-incubation, slow-binding; assay type: biochemical, Anabaena sp. YBS01
purified protein = substrate: N[C@@H](CCC[C@H](N)C(=O)O)C(=O)O; experiment: purified protein

Molecule | IC50 (DAP epimerase (DapF) [1]) [µM] | DAP dehydrogenase-coupled assay at 250 μM inhibitor, time-dependent pre-incubati (DAP epimerase (DapF) [2]) | IC50 (DAP epimerase (DapF) [3]) [µM] | Km (purified protein) [µM]
C[C@@](N)(CCC[C@H](N)C(=O)O)C(=O)O [D,L-α-methylDAP, (2R,6S)‐2,6‐diamino‐2‐methylheptanedioic acid] | 160 | A. thaliana DapF behaved similarly to Anabaena DapF and activity decreased with increasing length of pre‐incubation |  | 
C[C@](N)(CCC[C@H](N)C(=O)O)C(=O)O [L,L-α-methylDAP] |  | A. thaliana DapF behaved similarly to Anabaena DapF and activity decreased with increasing length of pre‐incubation | 120 | 
B1 |  |  |  | 68
